In patent US20200405697A1, “Antitumor Agent” (Taiho Pharmaceutical Co., Ltd, priority 2017, published 2020):

Target: T1, human RNR (histidine tagged human M1 and human M2 proteins) (Homo sapiens, UniProt P23921)
T1 construct: made in house; host or cells: Escherichia coli
T1 sequence (P23921 1-792): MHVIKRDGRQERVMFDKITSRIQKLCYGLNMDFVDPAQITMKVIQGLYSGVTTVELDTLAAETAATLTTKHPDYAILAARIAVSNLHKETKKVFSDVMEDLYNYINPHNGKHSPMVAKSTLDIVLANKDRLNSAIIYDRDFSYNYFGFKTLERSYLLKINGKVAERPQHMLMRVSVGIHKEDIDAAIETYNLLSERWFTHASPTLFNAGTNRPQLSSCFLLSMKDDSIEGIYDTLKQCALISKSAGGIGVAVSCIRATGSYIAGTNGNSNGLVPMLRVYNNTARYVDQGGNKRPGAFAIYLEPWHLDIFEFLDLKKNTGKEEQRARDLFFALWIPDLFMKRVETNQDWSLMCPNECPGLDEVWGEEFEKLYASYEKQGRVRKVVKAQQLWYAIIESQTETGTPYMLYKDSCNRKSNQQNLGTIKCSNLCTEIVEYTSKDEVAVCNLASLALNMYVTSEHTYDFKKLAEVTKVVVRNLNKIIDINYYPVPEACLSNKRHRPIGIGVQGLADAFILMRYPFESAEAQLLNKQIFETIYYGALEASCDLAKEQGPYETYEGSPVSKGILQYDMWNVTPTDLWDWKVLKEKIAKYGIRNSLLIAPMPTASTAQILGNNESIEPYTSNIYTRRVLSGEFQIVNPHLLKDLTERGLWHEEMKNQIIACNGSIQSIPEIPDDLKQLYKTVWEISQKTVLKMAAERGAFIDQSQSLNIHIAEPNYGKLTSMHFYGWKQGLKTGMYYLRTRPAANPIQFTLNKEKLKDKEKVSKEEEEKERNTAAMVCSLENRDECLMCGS
Assay: Human RNR inhibition effect (dCDP formation from CDP)
Assay type: biochemical
Conditions: 10 μM CDP, 37° C. for 30 minutes, read-out: RNR inhibitory activity IC50
Experimental: The inhibitory activity against the ribonucleotide reduction reaction (RNR inhibitory activity) of the Example compound was determined by measuring the formation of deoxycytidine diphosphate (hereinafter referred to as dCDP) from cytidine diphosphate (hereinafter referred to as CDP) by the following method.
Human M1 subunit (isoform 1, GenBank accession No: NM_001033), to which a histidine tag is fused at the amino terminus, and human M2 subunit (mutant lacking amino terminal 59 amino acids of isoform 2, GenBank accession No: NM_001034), to which a histidine tag is fused, were overexpressed in Escherichia coli and were solubilized after collection, and histidine tagged human M1 and histidine tagged human M2 proteins were purified on a nickel chelate column. A mixture of the histidine tagged human M1 and histidine tagged human M2 proteins was used as RNR in the ribonucleotide reduction reaction. [to]
First, Example compounds were serially diluted with DMSO. Next, human M1 protein and human M2 protein were added to a 0.02% aqueous albumin solution derived from fetal bovine serum, a DMSO solution of the Example compound or the control DMSO solution (final concentration of DMSO was 1%) was added, and the mixture was allowed to stand for 20 minutes. Thereafter, the reaction buffer [50 mM HEPES buffer (pH 7.2) at the final concentration, 4 mM magnesium acetate at the final concentration, 100 mM potassium chloride at the final concentration, 6 mM dithiothreitol at the final concentration, 2 mM adenosine triphosphate at the final concentration, 0.24 mM nicotinamide adenine dinucleotide phosphate at final concentration] and 10 μM CDP at the final concentration were added and incubated at 37° C. for 30 minutes to perform ribonucleotide reduction reaction. Immediately after the reaction, the reaction was stopped by heating at 100° C. for 15 minutes, followed by centrifugation at 10,000 rpm for 10 minutes. After the centrifugation, a portion (5 μL) of the resulting supernatant was analyzed with a high performance liquid chromatography (Shimadzu Corporation, Prominence) using Shim-pack XR-ODS (manufactured by Shimadzu GLC Co., 3.0×100 mm).

Row | SMILES | IC50 [nM]
1 | Cc1ccc(F)c([C@@H](C)[C@H](NS(=O)(=O)c2cnc(Cl)cc2C(N)=O)c2n[nH]c(=O)o2)c1C [Example 40, 2-chloro-5-(N-((1S,2R)-2-(6-fluoro-2,3-dimethylphenyl)-1-(5-oxo-4,5-dihydro-1,3,4-oxadiazol-2-yl)propyl)sulfamoyl)isonicotinamide] | 130
2 | Cc1ccc(F)c([C@@H](C)[C@H](NS(=O)(=O)c2cc(C(C)(C)O)c(Cl)cc2C(N)=O)c2n[nH]c(=O)o2)c1C [Example 198, 5-chloro-2-(N-((1S,2R)-2-(6-fluoro-2,3-dimethylphenyl)-1-(5-oxo-4,5-dihydro-1,3,4-oxadiazol-2-yl)propyl)sulfamoyl)-4-(2-hydroxypropan-2-yl)benzamide] | 60
3 | C[C@H](c1cccc2c1CCCC2)[C@H](NS(=O)(=O)c1ccc(Cl)cn1)c1n[nH]c(=O)o1 [Example 52] | 770
4 | Cc1ccc(F)c([C@@H](C)[C@H](NS(=O)(=O)c2ccc(Cl)c(S(N)(=O)=O)c2)c2n[nH]c(=O)o2)c1C [Example 176, 4-chloro-N1-((1S,2R)-2-(6-fluoro-2,3-dimethylphenyl)-1-(5-oxo-4,5-dihydro-1,3,4-oxadiazol-2-yl)propyl)benzene-1,3-disulfonamide] | 810
5 | C[C@H](c1cccc2c1CCC2)[C@H](NS(=O)(=O)c1ccc(Cl)c(C(C)(C)O)n1)c1n[nH]c(=O)o1 [Example 192, 5-chloro-N-((1S,2R)-2-(2,3-dihydro-1H-inden-4-yl)-1-(5-oxo-4,5-dihydro-1,3,4-oxadiazol-2-yl)propyl)-6-(2-hydroxypropan-2-yl)pyridine-2-sulfonamide] | 440
6 | COc1cc(Cl)ccc1S(=O)(=O)N[C@H](c1n[nH]c(=O)o1)[C@H](C)c1c(C)c(C)cc(F)c1F [Example 90, 4-chloro-N-((1S,2R)-2-(2,3-difluoro-5,6-dimethylphenyl)-1-(5-oxo-4,5-dihydro-1,3,4-oxadiazol-2-yl)propyl)-2-methoxybenzenesulfonamide] | 160
7 | Cc1ccc(F)c([C@@H](C)[C@H](NS(=O)(=O)c2cccc3[nH]ccc23)c2n[nH]c(=O)o2)c1C [Example 152, N-((1S,2R)-2-(6-fluoro-2,3-dimethylphenyl)-1-(5-oxo-4,5-dihydro-1,3,4-oxadiazol-2-yl)propyl)-1H-indole-4-sulfonamide] | 710
8 | Cc1c(Br)ccc(F)c1[C@@H](C)[C@H](NS(=O)(=O)c1ccc(C(F)(F)F)cc1C(N)=O)c1n[nH]c(=O)o1 [Example 42, 2-(N-((1S,2R)-2-(3-bromo-6-fluoro-2-methylphenyl)-1-(5-oxo-4,5-dihydro-1,3,4-oxadiazol-2-yl)propyl)sulfamoyl)-5-(trifluoromethyl)benzamide] | 200
9 | Cc1ccc(F)c([C@@H](C)[C@H](NS(=O)(=O)c2ccc(Cl)c3c2OCC(=O)N3C)c2n[nH]c(=O)o2)c1C [Example 93, 5-chloro-N-((1S,2R)-2-(6-fluoro-2,3-dimethylphenyl)-1-(5-oxo-4,5-dihydro-1,3,4-oxadiazol-2-yl)propyl)-4-methyl-3-oxo-3,4-dihydro-2H-benzo[b][1,4]oxazine-8-sulfonamide] | 100
10 | Cc1ccc(F)c([C@@H](C)[C@H](NS(=O)(=O)c2cc(C(=O)N(C)C)ccc2C(N)=O)c2n[nH]c(=O)o2)c1C [Example 37, 3-(N-((1S,2R)-2-(6-fluoro-2,3-dimethylphenyl)-1-(5-oxo-4,5-dihydro-1,3,4-oxadiazol-2-yl)propyl)sulfamoyl)-N1,N1-dimethylterephthalamide] | 140
11 | Cc1ccc(F)c([C@@H](C)[C@H](NS(=O)(=O)c2cc(C(C)(C)O)c(F)cc2C(N)=O)c2n[nH]c(=O)o2)c1C [Example 196, 5-fluoro-2-(N-((1S,2R)-2-(6-fluoro-2,3-dimethylphenyl)-1-(5-oxo-4,5-dihydro-1,3,4-oxadiazol-2-yl)propyl)sulfamoyl)-4-(2-hydroxypropan-2-yl)benzamide] | 80
12 | Cc1ccc(F)c([C@@H](C)[C@H](NS(=O)(=O)c2ccc(Cl)c3c2C(=O)CCC3)c2n[nH]c(=O)o2)c1C [Example 107, 4-chloro-N-((1S,2R)-2-(6-fluoro-2,3-diinethylphenyl)-1-(5-oxo-4,5-dihydro-1,3,4-oxadiazol-2-yl)propyl)-8-oxo-5,6,7,8-tetrahydronaphthalene-1-sulfonamide] | 240

Continued, values first:

Row | IC50 [nM] | SMILES
13 | 150 | Cc1ccc(F)c([C@@H](C)[C@H](NS(=O)(=O)c2ccc(Cl)c(C(=O)N3CCC(N)C3)n2)c2n[nH]c(=O)o2)c1C (stereo partly drawn) [Example 283, 6-(3-aminopyrrolidine-1-carbonyl)-5-chloro-N-((1S,2R)-2-(6-fluoro-2,3-dimethylphenyl)-1-(5-oxo-4,5-dihydro-1,3,4-oxadiazol-2-yl)propyl)pyridine-2-sulfonamide]
14 | 100 | Cc1ccc(F)c([C@@H](C)[C@H](NS(=O)(=O)c2ccc(Br)cc2OC(F)(F)F)c2n[nH]c(=O)o2)c1C [Example 338, 4-bromo-N-((1S,2R)-(6-fluoro-2,3-dimethylphenyl)-1-(5-oxo-4,5-dihydro-1,3,4-oxadiazol-2-yl)propyl)-2-(trifluoromethoxy)benzenesulfonamide]
15 | 100 | Cc1ccc(F)c([C@@H](C)[C@H](NS(=O)(=O)c2ccc(F)c3c2OCCC3(C)O)c2n[nH]c(=O)o2)c1C (single isomer, unassigned) [Example 224B]
16 | 830 | COC(=O)c1cc(S(=O)(=O)N[C@H](c2n[nH]c(=S)o2)[C@H](C)c2cccc3c2CCC3)ccc1Cl [Example 334, methyl 2-chloro-5-(N-((1S,2R)-2-(2,3-dihydro-1H-inden-4-yl)-1-(5-thioxo-4,5-dihydro-1,3,4-oxadiazol-2-yl)propyl)sulfamoyl)benzoate]
17 | 350 | CC#CC(O)(C#CC)c1ccc(C(N)=O)c(S(=O)(=O)N[C@H](c2n[nH]c(=O)o2)[C@H](C)c2c(F)ccc(C)c2C)c1 [Example 199]
18 | 70 | Cc1ccc(F)c([C@@H](C)[C@H](NS(=O)(=O)c2ccc(Cl)cc2C(=O)NO)c2n[nH]c(=O)o2)c1C [Example 286, 5-chloro-2-(N-((1S,2R)-2-(6-fluoro-2,3-dimethylphenyl)-1-(5-oxo-4,5-dihydro-1,3,4-oxadiazol-2-yl)propyl)sulfamoyl)-N-hydroxybenzamide]
19 | 140 | [2H]C([2H])([2H])C1(O)CCOc2c(S(=O)(=O)N[C@H](c3n[nH]c(=O)o3)[C@H](C)c3c(F)ccc(Cl)c3C)ccc(Cl)c21 (single isomer, unassigned) [Example 228B]
20 | 290 | Cc1ccc(F)c([C@@H](C)[C@H](NS(=O)(=O)c2cccc3c2OC(C)(C)CC3O)c2n[nH]c(=O)o2)c1C (single isomer, unassigned) [Example 237A]
21 | 90 | Cc1ccc(F)c([C@@H](C)[C@H](NS(=O)(=O)c2ccc(Cl)c3c2OCCC3(C)O)c2n[nH]c(=O)o2)c1C (single isomer, unassigned) [Example 207B]
22 | 510 | COc1cc(N)ccc1S(=O)(=O)N[C@H](c1n[nH]c(=O)o1)[C@H](C)c1cccc2cccc(C)c12 [Example 269, 4-amino-2-methoxy-N-((1S,2R)-2-(8-methylnaphthalen-1-yl)-1-(5-oxo-4,5-dihydro-1,3,4-oxadiazol-2-yl)propyl)benzenesulfonamide]
23 | 60 | Cc1c(Cl)ccc(F)c1[C@@H](C)[C@H](NS(=O)(=O)c1ccc(F)c2c1OCCC2(C)O)c1n[nH]c(=O)o1 (single isomer, unassigned) [Example 229A]
24 | 50 | Cc1c(Br)ccc(F)c1[C@@H](C)[C@H](NS(=O)(=O)c1ccc(F)c2c1OCCC2(C)O)c1n[nH]c(=O)o1 (single isomer, unassigned) [Example 227A]
